The values below come from patent publication US9987243B2, “Use of trans-palmitoleate in identifying and treating metabolic disease” (Trustees of Tufts College, priority 2010, dated 2018).

Data set [1] concerns OB/OB, wild-type, and high-fat diet mice. As to the kind of experiment: Tolerability of oral gavage administration in mice. The class given is in vivo. The settings on record: 200 mg/kg/day to 2 g/kg/day for 5 weeks in PEG 300. Here is the method:
Trans-palmitoleate was obtained in pure, powdered form from Nu-Check Prep, Inc. (Elysian, Minn.) and dissolved in a polyethylene glycol vehicle (PEG 300). Mice were administered, by gavage, trans-palmitoleate in doses ranging from 200 mg/kg/day to 2 g/kg/day for 5 weeks. […] In OB/OB mice, after 2 weeks of treatment, plasma lipid analysis was determined from samples taken after 6 hr of fasting, 30 hr after last trans-palmiloleate administration. Additionally, research diets comprising mouse chow at 2% trans-palmitoleate % total food weight can be formulated.

In data set [2] the test system is 327 generally healthy women in the Nurses' Health Study. Briefly: Nurses' Health Study validation cohort: erythrocyte and plasma trans-palmitoleate versus metabolic risk factors. The class given is in vivo, human. The settings on record: multivariable-adjusted level across quartiles. Here is the method: For independent validation, we evaluated the association of trans-palmitoleate measured in erythrocyte membranes and plasma (Sun et al., 88 Am. J. Clin. Nutr, 216 (2008)), with metabolic risk factors in a cohort of 327 generally healthy women, age=60.4±6.1 years, in the Nurses' Health Study (NHS). Relationships were evaluated for HDL-C, total:HDL-C, interleukin-6, CRP, and hemoglobinAlc. Because many samples were nonfasting, triglycerides and LDL-C were not evaluated; the number of subjects was too small to evaluate incident diabetes. Multivariable models were adjusted for age, smoking, physical activity, alcohol intake, family history, hypertension, hormone use, fasting status, and dietary carbohydrate, protein, polyunsaturated fats, saturated fat, dietary fiber, and total energy. We also evaluated correlations of trans-palmitoleate levels in plasma vs. erythrocytes in NHS (Spearman correlation[r]=0.74); and in phospholipids vs. triglycerides in CHS (n=104; r=0.54).

Where [3] appears, read: erythrocyte trans-palmitoleate, first value.
Where [4] appears, read: erythrocyte trans-palmitoleate, second value.
Setting [5] is: plasma trans-palmitoleate, first value.
Setting [6] is: plasma trans-palmitoleate, second value.

`CCCCCC/C=C/CCCCCCCC(=O)O` [trans-palmitoleate, trans-C16:1n7-palmitoleic acid]: the tolerability entry in data set [1] is recorded as “well-tolerated, with no ill effects observed”. In data set [2] (setting [3]), the CRP is on record as 3.3 mg/L, the hemoglobinAlc came to 5.92, the “interleukin-6 (IL-6)” value is 2.3 pg/mL and the “total:HDL-C” value stood at 4.21. Also, in data set [2] (setting [4]), the CRP is 2.1 mg/L, the hemoglobinAlc came out at 5.66, the “interleukin-6 (IL-6)” value is 1.8 pg/mL and the “total:HDL-C” value is 3.87. In data set [2] (setting [5]), the HDL-C came to 56.5 mg/dL, the hemoglobinAlc is on record as 5.88% and the “total:HDL-C” value stood at 4.28. In addition, in data set [2] (setting [6]), the HDL-C came out at 61.7 mg/dL, the hemoglobinAlc came to 5.64% and the “total:HDL-C” value amounted to 3.63.
